Laboratory results reported in patent publication US7741355B2, “Small-molecule modulators of TRP-p8 activity” (Dendreon Corporation, priority 2006, dated 2010).
Like-named read-outs stand apart in the source and are kept apart here.

Target: T1, Trp-p8 (Homo sapiens, UniProt Q7Z2W7, T58I)
T1 construct: expressed in transfected cells; host or cells: CHO (Chinese Hamster Ovary) cells
Assay: ATP viability assay with CHO/Trp-p8 cells at 37° C.
Assay type: cell-based
Details: CHO/Trp-p8 cells, 24-26 hours at 37° C., 50% reduction in relative cell viability, read-out: EC50
From the text: Human Trp-p8 transfected CHO cells (referred to herein as CHO/Trp-p8) were generated for use in experiments of the present invention. Expression of Trp-p8 polypeptide in this transfectant and the absence of any endogenous expression in the non-transfected CHO was confirmed by western blot and immunofluorescence using a Trp-p8 specific antibody (GS2.20) as well as the calcium flux assay with Icilin (1-[2-hydroxyphenyl]-4-[3-nitrophenyl]-1,2,3,6-tetrahydropyrimidine-2-one) and menthol (2-isopropyl-5-methyl-cyclohexanol). Non-transfected CHO cells were used to establish the specificity of the effects of the compounds observed with CHO/Trp-p8.
This Example discloses an ATP viability assay suitable for screening for effective Trp-p8 agonists. The ATP viability assay described herein employs CHO cells expressing an exogenous Trp-p8 cDNA. This example further establishes that Trp-p8 agonists of the present invention are effective in decreasing the viability of Trp-p8 expressing cells.
The concentration of intracellular ATP declines very rapidly when metabolically active cells undergo necrosis and/or apoptosis. The ATP concentration and consequently the relative cell viability can be measured by established methods using commercially available reagents. In the agonist screening methodology disclosed herein, a compound that specifically decreases the viability of CHO/Trp-p8 cells is referred to as an agonist.
As a primary screen for efficacy and specificity for agonists, both the non-transfected CHO and CHO/Trp-p8 cells were exposed to 1 or 10 μM of test compounds in 1% dimethylsulfoxide (DMSO) or 1% DMSO (control) in a 96-well black walled, black-bottomed, cell-culture treated plate. DMSO was the solvent for all of the compounds tested. After 24-26 hours at 37° C., the cells were lysed and ATP concentration determined via a chemiluminescence assay using a commercially available reagent kit—Cell Titer-Glo (Promega; Madison, Wis.). […] (EC50 is defined herein as the agonist concentration at which there is a 50% reduction in relative cell viability).

T1 sequence (Q7Z2W7 whole entry T58I): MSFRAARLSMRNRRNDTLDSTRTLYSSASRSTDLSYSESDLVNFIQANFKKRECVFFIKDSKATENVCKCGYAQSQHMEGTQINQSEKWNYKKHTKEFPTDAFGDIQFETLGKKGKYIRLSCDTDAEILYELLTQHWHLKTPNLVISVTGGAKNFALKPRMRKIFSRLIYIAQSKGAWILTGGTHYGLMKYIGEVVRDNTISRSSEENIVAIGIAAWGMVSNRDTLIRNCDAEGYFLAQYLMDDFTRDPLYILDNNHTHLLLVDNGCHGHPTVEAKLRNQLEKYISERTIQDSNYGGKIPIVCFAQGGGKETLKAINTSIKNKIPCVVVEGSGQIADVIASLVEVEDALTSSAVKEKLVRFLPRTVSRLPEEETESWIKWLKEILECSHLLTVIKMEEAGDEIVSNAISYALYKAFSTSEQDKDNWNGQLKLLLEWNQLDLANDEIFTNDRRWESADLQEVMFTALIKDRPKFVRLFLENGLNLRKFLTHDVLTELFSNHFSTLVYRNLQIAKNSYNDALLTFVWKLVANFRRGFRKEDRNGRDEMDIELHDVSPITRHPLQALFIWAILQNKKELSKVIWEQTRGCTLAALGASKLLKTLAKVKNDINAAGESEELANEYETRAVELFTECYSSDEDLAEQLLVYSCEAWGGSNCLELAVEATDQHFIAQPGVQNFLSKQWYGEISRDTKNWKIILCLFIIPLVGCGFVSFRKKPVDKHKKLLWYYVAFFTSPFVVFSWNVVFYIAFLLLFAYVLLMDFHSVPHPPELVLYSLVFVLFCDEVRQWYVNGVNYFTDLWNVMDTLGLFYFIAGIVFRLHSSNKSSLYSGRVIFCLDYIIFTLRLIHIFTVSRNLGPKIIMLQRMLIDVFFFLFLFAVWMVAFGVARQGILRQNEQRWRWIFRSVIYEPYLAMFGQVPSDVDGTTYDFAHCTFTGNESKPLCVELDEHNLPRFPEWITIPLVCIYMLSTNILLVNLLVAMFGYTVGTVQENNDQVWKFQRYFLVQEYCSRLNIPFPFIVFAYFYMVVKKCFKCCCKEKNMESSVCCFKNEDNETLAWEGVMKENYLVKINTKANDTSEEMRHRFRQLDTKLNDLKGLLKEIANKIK

SMILES | EC50 (Table 1, Formula I-A) | EC50 (Table 2, Formula I-B) | also measured
CC(C)[C@@H]1CC[C@@H](C)C[C@H]1C(=O)NCC(NC(=O)[C@@H](C)N)c1ccccc1 (stereo in doubt) [Compound 28, 2-Isopropyl-5-methyl-cyclohexanecarboxylic acid [2-(2-amino-propionylamino)-2-phenyl-ethyl]-amide] |  |  | EC50 (Table 3, Formula I-C): < 20 nM
CCOc1ccc2c(c1)n(CCN)c(=O)n2C(=O)[C@@H]1C[C@H](C)CC[C@H]1C(C)C (stereo in doubt) [Compound 38, 3-(2-Aminoethyl)-5-ethoxy-1-(2-isopropyl-5-methylcyclohexanecarbonyl)-1,3-dihydro-benzoimidazol-2-one] |  |  | EC50 (Table 5, Formula I-E): < 20 nM
CCNC(=O)c1ccc2c(c1)n(CCN)c(=O)n2C(=O)[C@@H]1C[C@H](C)CC[C@H]1C(C)C (stereo in doubt) [Compound 47, 3-(2-Amino-ethyl)-1-(2-isopropyl-5-methylcyclohexanecarbonyl)-2-oxo-2,3-dihydro-1H-benzoimidazole-5-carboxylic acid ethyl amide] |  |  | EC50 (Table 5, Formula I-E): < 20 nM
CC(C)[C@@H]1CC[C@@H](C)C[C@H]1C(=O)n1c(=O)n(CCN)c2cc(C(=O)Nc3cccnc3)ccc21 (stereo in doubt) [Compound 48, 3-(2-Amino-ethyl)-1-(2-isopropyl-5-methylcyclohexanecarbonyl)-2-oxo-2,3-dihydro-1H-benzoimidazole-5-carboxylic acid pyridine-3-yl amide] |  |  | EC50 (Table 5, Formula I-E): < 20 nM
COc1ccc(NC(=O)[C@@H]2C[C@H](C)CC[C@H]2C(C)C)c(NC(=O)[C@@H](C)N)c1 [Compound 1, 2-Isopropyl-5-methyl-cyclohexanecarboxylic acid-[2-(2-aminopropionylamino)-4-methoxylphenyl]amide] | < 20 nM |  | 
CSc1ccc(NC(=O)[C@@H]2C[C@H](C)CC[C@H]2C(C)C)c(C(=O)NCCN)c1 [Compound 2] | < 20 nM |  | 
CC(C)[C@@H]1CC[C@@H](C)C[C@H]1C(=O)Nc1ccc2ccccc2c1OCCN [Compound 3] | < 20 nM |  | 
CSc1ccc(NC(=O)[C@@H]2C[C@H](C)CC[C@H]2C(C)C)c(NCCN)c1 [Compound 4, 2-Isopropyl-5-methyl-cyclohexanecarboxylic acid [2-(2-amino-ethylamino)-4-methylsulfanyl-phenyl]amide] | < 20 nM |  | 
COc1ccc(NC(=O)[C@@H]2C[C@H](C)CC[C@H]2C(C)C)c(C(=O)NCCN)c1 [Compound 5] | < 20 nM |  | 
CC[C@@H](N)C(=O)Nc1cc(OC)ccc1NC(=O)[C@@H]1C[C@H](C)CC[C@H]1C(C)C [Compound 6] | 21 to 50 nM |  | 
COc1ccc(NC(=O)[C@@H]2C[C@H](C)CC[C@H]2C(C)C)c(NC(=O)[C@H](N)CO)c1 [Compound 7] | 21 to 50 nM |  | 
CC(C)[C@@H]1CC[C@@H](C)C[C@H]1C(=O)Nc1cc2ccccc2cc1NCCN [Compound 8] | 21 to 50 nM |  | 
CC(C)[C@@H]1CC[C@@H](C)C[C@H]1C(=O)Nc1ccccc1C(=O)NCCN [Compound 9] | 21 to 50 nM |  | 
COc1ccc(NC(=O)[C@@H]2C[C@H](C)CC[C@H]2C(C)C)c(NC(=O)[C@@H](N)CO)c1 [Compound 10] | 21 to 50 nM |  | 
CC(C)[C@@H]1CC[C@@H](C)C[C@H]1C(=O)Nc1ccccc1NC(=O)CN [Compound 11] | 51 to 100 nM |  | 
COc1ccc(NC(=O)[C@@H]2C[C@H](C)CC[C@H]2C(C)C)c(NC(=O)[C@H](N)[C@H](C)O)c1 [Compound 12] | 51 to 100 nM |  | 
COc1ccc(NC(=O)[C@@H]2C[C@H](C)CC[C@H]2C(C)C)c(NC(=O)CN)c1 [Compound 13] | 51 to 100 nM |  | 
CC(C)[C@@H]1CC[C@@H](C)C[C@H]1C(=O)Nc1cc(-c2ccco2)nn1CCN [Compound 14, 2-Isopropyl-5-methyl-cyclohexane carboxylic acid-[2-(2-amino-ethyl)-5-furan-2-yl-2H-pyrazol-3-yl]-amide] |  | < 20 nM | 
CC(C)[C@@H]1CC[C@@H](C)C[C@H]1C(=O)Nc1cc(-c2ccccc2)nn1C[C@@H](C)N [Compound 15] |  | < 20 nM | 
CC(C)[C@@H]1CC[C@@H](C)C[C@H]1C(=O)Nc1cc(-c2ccccc2)nn1CCN [Compound 16] |  | < 20 nM | 
CC(C)[C@@H]1CC[C@@H](C)C[C@H]1C(=O)Nc1cc(-c2cccn2C)nn1CCN [Compound 17, 2-Isopropyl-5-methyl-cyclohexane carboxylic acid-[2-(2-amino-ethyl)-5-(1-methyl-1H-pyrrol-2-yl)-2H-pyrazol-3-yl]-amide] |  | < 20 nM | 
CC(C)[C@@H]1CC[C@@H](C)C[C@H]1C(=O)Nc1cc(-c2ccccc2)nn1CCCN [Compound 18] |  | < 20 nM | 

SMILES | EC50 (Table 1, Formula I-A) | EC50 (Table 2, Formula I-B) | also measured
CC(C)[C@@H]1CC[C@@H](C)C[C@H]1C(=O)Nc1cc(-c2ccc(N)cc2)nn1CCN [Compound 19] |  | 21 to 50 nM | 
CC(C)[C@@H]1CC[C@@H](C)C[C@H]1C(=O)Nc1cc(-c2ccc(O)cc2)nn1CCN [Compound 20] |  | 21 to 50 nM | 
CNCCn1nc(-c2ccccc2)cc1NC(=O)[C@@H]1C[C@H](C)CC[C@H]1C(C)C [Compound 21] |  | 21 to 50 nM | 
CC(C)[C@@H]1CC[C@@H](C)C[C@H]1C(=O)Nc1cc(-c2ccccc2)nn1C[C@H](C)N [Compound 22] |  | 21 to 50 nM | 
CC(C)[C@@H]1CC[C@@H](C)C[C@H]1C(=O)Nc1cc(-c2cccc(C#N)c2)nn1CCN [Compound 23] |  | 21 to 50 nM | 
COc1cccc(-c2cc(NC(=O)[C@@H]3C[C@H](C)CC[C@H]3C(C)C)n(CCN)n2)c1 [Compound 24] |  | 21 to 50 nM | 
COC(=O)c1ccc(-c2cc(NC(=O)[C@@H]3C[C@H](C)CC[C@H]3C(C)C)n(CCN)n2)cc1 [Compound 25] |  | 51 to 100 nM | 
CC(C)[C@@H]1CC[C@@H](C)C[C@H]1C(=O)Nc1cc(-c2cccc(N)c2)nn1CCN [Compound 26] |  | 51 to 100 nM | 
CC(C)[C@@H]1CC[C@@H](C)C[C@H]1C(=O)Nc1cc(-c2cccc(O)c2)nn1CCN [Compound 27] |  | 51 to 100 nM | 
CC(C)[C@@H]1CC[C@@H](C)C[C@H]1C(=O)NC[C@@H](OCCN)c1ccccc1 [Compound 29] |  |  | EC50 (Table 3, Formula I-C): < 20 nM
CC(C)[C@@H]1CC[C@@H](C)C[C@H]1C(=O)NCC(OCCN)c1ccccc1 (stereo partly shown) [Compound 30, 2-Isopropyl-5-methyl-cyclohexanecarboxylic[2-(2-amino-4-ethoxy)-2-phenyl-ethyl]-amide] |  |  | EC50 (Table 3, Formula I-C): < 20 nM
CC(C)[C@@H]1CC[C@@H](C)C[C@H]1C(=O)NCC(OCCCN)c1ccccc1 (stereo partly shown) [Compound 31, 2-Isopropyl-5-methyl-cyclohexanecarboxylic[2-(3-amino-4-propoxy)-2-phenyl-ethyl]-amide] |  |  | EC50 (Table 3, Formula I-C): 21 to 50 nM
CC(C)[C@@H]1CC[C@@H](C)C[C@H]1C(=O)NCC(NCCN)c1ccccc1 (stereo partly shown) [Compound 32] |  |  | EC50 (Table 3, Formula I-C): 51 to 100 nM
CC(C)[C@@H]1CC[C@@H](C)C[C@H]1C(=O)NCCc1ccccc1NCCN [Compound 33, 2-Isopropyl-5-methyl-cyclohexanecarboxylic acid {2-[2-(2-amino-ethylamino)-phenyl]-ethyl}-amide] |  |  | EC50 (Table 4, Formula I-D): < 20 nM
CC(C)[C@@H]1CC[C@@H](C)C[C@H]1C(=O)NCCc1ccccc1CN [Compound 34] |  |  | EC50 (Table 4, Formula I-D): < 20 nM
CC(C)[C@@H]1CC[C@@H](C)C[C@H]1C(=O)NCCN(C(=O)CN)c1ccccc1 [Compound 35] |  |  | EC50 (Table 4, Formula I-D): 21 to 50 nM
COc1ccc2c(c1)n(CCN)c(=O)n2C(=O)[C@@H]1C[C@H](C)CC[C@H]1C(C)C [Compound 36, 3-(2-Aminoethyl)-1-(2-isopropyl-5-methylcyclohexanecarbonyl)-5-methoxy-1,3-dihydro-benzoimidazol-2-one] |  |  | EC50 (Table 5, Formula I-E): < 20 nM
CC(C)[C@@H]1CC[C@@H](C)C[C@H]1C(=O)n1c(=O)n(CCN)c2cc(OCCCO)ccc21 [Compound 37, 3-(2-aminoethyl)-5-(3-hydroxypropoxy)-1-(2-isopropyl-5-methylcyclohexanecarbonyl)-1,3-dihydro-benzoimidazol-2-one] |  |  | EC50 (Table 5, Formula I-E): < 20 nM
CC(C)[C@@H]1CC[C@@H](C)C[C@H]1C(=O)n1c(=O)n(CCN)c2cc(S(C)(=O)=O)ccc21 [Compound 39] |  |  | EC50 (Table 5, Formula I-E): < 20 nM
CC(C)[C@@H]1CC[C@@H](C)C[C@H]1C(=O)n1c(=O)n(CCN)c2cc(OCCO)ccc21 [Compound 40, 3-(2-aminoethyl)-5-(2-hydroxyethoxy)-1-(2-isopropyl-5-methylcyclohexanecarbonyl)-1,3-dihydro-benzoimidazol-2-one] |  |  | EC50 (Table 5, Formula I-E): < 20 nM
CC(C)[C@@H]1CC[C@@H](C)C[C@H]1C(=O)n1c(=O)n(CCN)c2cc(C(N)=O)ccc21 [Compound 41, 3-(2-Amino-ethyl)-1-(2-isopropyl-5-methyl-cyclohexanecarbonyl)-2-oxo-2,3-dihydro-1H-benzoimidazole-5-carboxylic acid amide] |  |  | EC50 (Table 5, Formula I-E): < 20 nM
